{
  "source": "paper PMC9223764",
  "about": "“In Vitro Selection and Characterization of HIV-1 Variants with Increased Resistance to LP-40, Enfuvirtide-Based Lipopeptide Inhibitor” (International Journal of Molecular Sciences, 2022)",
  "format_in_all_cases": "cell-based",
  "key": {"[1]": {"tested_on": "T20- and LP40-resistant mutant pseudoviruses of HIV-1 NL4-3", "details": "for Largest decrease in susceptibility among LP-40-resistant strains / Largest decrease in susceptibility among T20-resistant strains / Decrease in sensitivity, range over mutants / Decrease in sensitivity, range over strains / Decrease in sensitivity: relative to WT", "experimental": "To simulate the sequence changes of viral resistance genes under different drug concentration pressures, we constructed the Env genes under different drug concentration pressures in the PCDNA3.1 vector and obtained a series of mutations. […] T20-V 6~12, T20-V 13~14, and T 20-V 15~18 were constructed at concentrations of 200 µM (P21), 400 µM (P24), and 2000 µM (P32), respectively. Similarly, the LP-40 pressure concentrations were 0.3 µM, 8 µM, 20 µM, and 200 µM, respectively, and the constructs were numbered LP40-V 1~5, LP40-V 6~8, LP40-V 9~11, and LP40-V 12~15. Resistance mutations will cause varying levels of damage to the function of the pseudoviral envelope proteins. Here, we explored how serial mutations affect the function of viral envelope proteins. Based on this problem, we performed a single round of quantitative P24-infection experiments, packaging the pseudovirus with a previously constructed series of mutant plasmids. We compared the invasion ability of the HIV-1 wild-type and mutant pseudoviruses toward target cells under the same P24 content (using the invasion capacity of each subtype as 100%).\nThe frequency of the T20-V8 strain was 1/12. From sequence alignment, except for the L33S, which appeared in all the sequences, the new mutation site of D36G/V38A/N42T was also introduced.\nAmong them, LP-40-inhibited LP40-V11 reached 3.3 µM. When the concentration of LP-40 rose to 200 µM, I37T disappeared, and L33S/D36G/V38A/N42T/I69V became the main mutation point.\nThe mutation G20V only appeared in T20-induced drug resistance, and the frequency was low. […] This mutation point N126K appeared in LP-40-induced drug resistance with a high frequency.\n(§1) The infectivity of HIV Env mutants and the inhibitory activities of membrane fusion inhibitors on mutants in TZM-bl cells were measured using a single-cycle infection assay as described previously. Briefly, the HIV pseudovirus was packed using an Env-coding plasmid, and pSG3ΔEnv was co-transfected into HEK293T cells. pSG3ΔEnv encodes an Env-defective, luciferase-expressing HIV-1 genome. After the pseudoviruses were harvested and filtrated, the amount of pseudoviruses was fixed via P24 antigen, and their infectivity was determined in TZM-bl cells. In order to measure the inhibitory activities of the inhibitors, inhibitors diluted serially 3-fold were mixed with an equal volume of pseudoviruses, and then 100 µL 1 × 10^5/mL TZM-bl cells were added to the mixture and incubated at 37 °C with 5% CO2 for 48 h. After that, TZM-bl cells were lysed using reporter lysis buffer, and IC50 values were calculated according to luciferase activity measured by luciferase assay reagents and a luminescence counter (Promega, Madison, WI, USA)."}, "[2]": {"tested_on": "HIV-1 NL4-3 gp41 NDQEEDYN/L33S/I37T pseudovirus", "details": "Table 3; for IC50: NDQEEDYN/L33S/I37T, TZM-bl cells, 48 h, luciferase, means, triplicate, repeated three times", "experimental": "(§2) We selected LP-40-induced drug resistance typical point mutations and combination mutation pseudoviruses to evaluate the current representative membrane fusion inhibitors.\nas §1"}, "[3]": {"tested_on": "HIV-1 NL4-3 gp41 L33S/I37T pseudovirus", "details": "Table 3; for IC50: L33S/I37T, TZM-bl cells, 48 h, luciferase, means, triplicate, repeated three times", "experimental": "as §2, §1"}, "[4]": {"tested_on": "HIV-1 NL4-3 gp41 L33S/V38A/N42T pseudovirus", "details": "Table 3; for IC50: L33S/V38A/N42T, TZM-bl cells, 48 h, luciferase, means, triplicate, repeated three times", "experimental": "as §2, §1"}, "[5]": {"tested_on": "HIV-1 NL4-3 gp41 NDQEEDYN/L33S/V38A/N42T pseudovirus", "details": "Table 3; for IC50: NDQEEDYN/L33S/V38A/N42T, TZM-bl cells, 48 h, luciferase, means, triplicate, repeated three times", "experimental": "as §2, §1"}, "[6]": {"tested_on": "HIV-1 NL4-3 gp41 NDQEEDYN pseudovirus", "details": "Table 3; for IC50: NDQEEDYN (E109N, N113D, E119Q, D121E, N125E, S129D, H132Y, S133N), TZM-bl cells, 48 h, luciferase, means, triplicate, repeated three times", "experimental": "as §2, §1"}, "[7]": {"tested_on": "HIV-1 NL4-3 gp41 V38A/N42T pseudovirus", "details": "Table 3; for IC50: V38A/N42T, TZM-bl cells, 48 h, luciferase, means, triplicate, repeated three times", "experimental": "as §2, §1"}, "[8]": {"tested_on": "LP40-V2 pseudovirus (HIV-1 NL4-3 Env mutant)", "experimental": "as §1"}, "[9]": {"tested_on": "HIV-1 NL4-3 pseudovirus (WT)", "details": "for IC50: WT NL4-3, TZM-bl cells, 48 h, luciferase, triplicate, repeated three times", "experimental": "as §1"}, "[10]": {"details": "six point-mutant pseudoviruses L33S, I37T, V38A, V38T, N42T, N43S"}, "[11]": {"details": "six point-mutant pseudoviruses L33S, I37T, V38A, V38T, N42T, N43S, read-out: IC50, range over mutants"}},
  "note": "Like-named read-outs stand apart in the source and are kept apart here. Where a SMILES comes first, the peptide text is derived from it. The star is where a group is joined. Palmitoyl = CCCCCCCCCCCCCCCC(=O)*",
  "data": [
    {"compound": "Enfuvirtide", "values": [
      {"measurement": "Largest decrease in susceptibility among LP-40-resistant strains", "setting": "[1]", "value": 107, "unit": "fold"},
      {"measurement": "Largest decrease in susceptibility among T20-resistant strains", "setting": "[1]", "value": "up to 112 fold"},
      {"measurement": "Decrease in sensitivity, range over mutants", "setting": "[1]; [10]", "value": "6–51 fold"},
      {"measurement": "IC50", "setting": "[1]; [11]", "value": "0.41 to 3.4", "unit": "µM"},
      {"measurement": "Decrease in sensitivity, range over strains", "setting": "[1]; strains induced at T20 2000 µM", "value": "32- to 112 fold"},
      {"measurement": "Decrease in sensitivity", "setting": "[1]; viral strains induced at T20 200 µM", "value": "more than 50 fold"},
      {"measurement": "IC50", "setting": "[1]; viral strains induced at T20 200 µM, read-out: IC50, range over strains", "value": "2.8 to 5.3", "unit": "µM"},
      {"measurement": "Decrease in sensitivity, range over strains", "setting": "[1]; virus strain induced at T20 12 µM", "value": "one- to two"},
      {"measurement": "IC50", "setting": "[2]", "value": 3.79, "unit": "µM"},
      {"measurement": "IC50", "setting": "[3]", "value": 5.85, "unit": "µM"},
      {"measurement": "IC50", "setting": "[4]", "value": 4.92, "unit": "µM"},
      {"measurement": "IC50", "setting": "[5]", "value": 4.78, "unit": "µM"},
      {"measurement": "IC50", "setting": "[6]", "value": 0.0625, "unit": "µM"},
      {"measurement": "IC50", "setting": "[7]", "value": 3.35, "unit": "µM"}
    ]},
    {"compound": "CCCCCCCCCCCCCCCC(=O)NCCCC[C@H](NC(=O)[C@H](CC(=O)O)NC(=O)[C@H](CC(C)C)NC(=O)[C@H](CCC(=O)O)NC(=O)[C@H](CC(C)C)NC(=O)[C@H](CC(C)C)NC(=O)[C@H](CCC(=O)O)NC(=O)[C@H](CCC(N)=O)NC(=O)[C@H](CCC(=O)O)NC(=O)[C@H](CC(N)=O)NC(=O)[C@H](CCCCN)NC(=O)[C@H](CCC(=O)O)NC(=O)[C@H](CCC(N)=O)NC(=O)[C@H](CCC(N)=O)NC(=O)[C@H](CC(N)=O)NC(=O)[C@H](CCC(N)=O)NC(=O)[C@H](CO)NC(=O)[C@H](CCC(=O)O)NC(=O)[C@H](CCC(=O)O)NC(=O)[C@@H](NC(=O)[C@H](CC(C)C)NC(=O)[C@H](CO)NC(=O)[C@H](Cc1c[nH]cn1)NC(=O)[C@@H](NC(=O)[C@H](CC(C)C)NC(=O)[C@H](CO)NC(=O)[C@@H](NC(=O)[C@H](Cc1ccc(O)cc1)NC(C)=O)[C@@H](C)O)[C@@H](C)CC)[C@@H](C)CC)C(N)=O", "note": "[LP-40] (Ac-YTSLIHSLIEESQNQQEKNEQELLELDK(Palmitoyl)-NH2)", "values": [
      {"measurement": "Largest decrease in susceptibility among LP-40-resistant strains", "setting": "[1]", "value": "over 227 fold"},
      {"measurement": "Largest decrease in susceptibility among T20-resistant strains", "setting": "[1]", "value": 227, "unit": "fold"},
      {"measurement": "Decrease in sensitivity, range over strains", "setting": "[1]; first group of LP-40-resistant strains (LP40-V1, LP40-V2)", "value": "1.5–12.6 fold"},
      {"measurement": "Decrease in sensitivity, range over mutants", "setting": "[1]; [10]", "value": "6–111 fold"},
      {"measurement": "IC50", "setting": "[1]; [11]", "value": "0.2 to 3.5", "unit": "µM"},
      {"measurement": "Decrease in sensitivity", "setting": "[1]; strains induced at LP-40 200 µM", "value": "over 227 fold"},
      {"measurement": "Decrease in sensitivity", "setting": "[1]; viral strains induced at LP-40 8 µM and 20 µM", "value": "more than 92 fold"},
      {"measurement": "IC50", "setting": "[1]; viral strains induced at LP-40 8 µM and 20 µM, read-out: IC50, range over strains", "value": "2.8 to 3.3", "unit": "µM"},
      {"measurement": "Fold change in IC50", "setting": "[2]; NDQEEDYN/L33S/I37T relative to WT NL4-3", "value": 120.00, "unit": "fold"},
      {"measurement": "IC50", "setting": "[2]", "value": 3.28, "unit": "µM"},
      {"measurement": "Fold change in IC50", "setting": "[3]; L33S/I37T relative to WT NL4-3", "value": 109.04, "unit": "fold"},
      {"measurement": "IC50", "setting": "[3]", "value": 2.98, "unit": "µM"},
      {"measurement": "Fold change in IC50", "setting": "[4]; L33S/V38A/N42T relative to WT NL4-3", "value": 182.67, "unit": "fold"},
      {"measurement": "IC50", "setting": "[4]", "value": 4.99, "unit": "µM"},
      {"measurement": "Fold change in IC50", "setting": "[5]; NDQEEDYN/L33S/V38A/N42T relative to WT NL4-3", "value": ">228.77", "unit": "fold"},
      {"measurement": "IC50", "setting": "[5]", "value": "> 6.25", "unit": "µM"},
      {"measurement": "IC50", "setting": "[6]", "value": 0.1, "unit": "µM"},
      {"measurement": "Fold change in IC50", "setting": "[6]; NDQEEDYN relative to WT NL4-3", "value": 3.67, "unit": "fold"},
      {"measurement": "Fold change in IC50", "setting": "[7]; V38A/N42T relative to WT NL4-3", "value": 149.15, "unit": "fold"},
      {"measurement": "IC50", "setting": "[7]", "value": 4.07, "unit": "µM"},
      {"measurement": "IC50", "setting": "[8]; LP40-V2 (Env selected at LP-40 0.3 µM), TZM-bl cells, 48 h, luciferase, mean ± SD, triplicate, repeated three times", "value": "0.374 ± 0.0298", "unit": "µM"},
      {"measurement": "Fold change in IC50", "setting": "[8]; LP40-V2 relative to WT NL4-3, Table 1", "value": 12.59, "unit": "fold"},
      {"measurement": "IC50", "setting": "[9]; Table 1, mean ± SD", "value": "0.0297 ± 0.00452", "unit": "µM"},
      {"measurement": "IC50", "setting": "[9]; Table 2, mean ± SD", "value": "0.0315 ± 0.0104", "unit": "µM"},
      {"measurement": "IC50", "setting": "[9]; Table 3, means", "value": 0.0273, "unit": "µM"},
      {"measurement": "Fold change in IC50", "setting": "[9]; WT NL4-3 reference, Table 1", "value": 1.00, "unit": "fold"}
    ]}
  ]
}
